# “Also recorded” adds a separate entry of the source. Peptide text beside a SMILES is read from it.
# Experiments:
# [1] = system: endothelial cells (adult bovine aorta endothelium); experiment: Growth bioassay, endothelial cells; type: cell-based; conditions: FGF-P added to culture media
# Procedure: These clusters can be counted thus allowing for measurement of relative binding coefficients. To test the feasibility of binding coefficient measurement, competition experiments were performed. Free FGF-P (30 ug/ml) was added to cells for 20 min and then the biotin-FGF-P (1 μg/mL) was added. One hour later, the streptavidin-FITC was added and analyzed by flow cytometry. […] In a third test, a bioassay was performed. FGF-P was added to culture media of two types of cells: endothelial cells (adult bovine aorta endothelium) and epithelial cells (SW480, a cell line from colon).
# Three preliminary experiments were carried out using FGF-P in vitro to confirm its activity. First, the biotin conjugated FGF-P was used as a tool to examine cell surface binding. AsPC-1 pancreatic cancer epithelial cells are known to have high levels of FGFR and were used for this study. ASPC-1 cells were incubated with 1 μg/ml of biotin-FGF-P and then labeled with streptavidin-FITC. The cells were then analyzed using an imaging flow cytometer (Amnis Imagestream). This device can image each cell as it passes through the laser, and it can then sort cells according to both staining and morphological characteristics. […] These clusters were counted, allowing for measurement of relative binding coefficients. […] One hour later, streptavidin-FITC was added and analyzed by flow cytometry. […]
# [2] = system: mice exposed to sub-TBI (GI syndrome); experiment: Survival after sub-TBI (GI syndrome / AGS model); type: in vivo, mouse (Balb/c, C57BL/6, C3H/HeN)
# Source text: A sub-TBI (total body irradiation) model was created, in which one leg of mouse is shielded from the direct radiation field. With this system, 8.5 Gy can be delivered to Balb/c mice without BM deaths (defined as deaths that occur between 10 and 30 days). When sub-TBI dose was increased to 9 Gy, half the irradiated mice die, and at 10.5 Gy, 66-100% mice died within 5-7 days. Pathologically these mice have devastating gut damage. In our GI (sub-TBI) model, the LD50/7 for Balb/c mice (6-8 week old from NCI) was 8.9-9.1 Gy. Using this GI model, the mitigation effect of FGF-P on the GI syndrome was tested. FGF-P (2 mg/kg) was given im 5-10 minutes after IR and continued once a day for 3-5 consecutive days. Each animal experiment had its own vehicle mock treatment group as control.
# When the sub-TBI dose is raised to 10.5 or 11 Gy, 100% of the untreated control mice died of GI syndrome, while 33-67% of mice treated with FGF-P survived 3.5 months, FIGS. 2B and 2C). When the IR dose was raised to 12 Gy, all control animals died and 17% of FGF-P treated mice survived (FIG. 2D). […] Additionally, many of the animals that do die, do so later than mice not treated with FGF-P.
# Native FGF-2 has a mouse strain dependent response profile. Most strains enjoy a benefit, but responses in C57 mice have been unimpressive. To determine if the agent works in mice with different genomic backgrounds, FGF-P (2 mg/kg) was given to C57BL/6 mice 10 min after the mice were exposed to 16 Gy sub-TBI. […] A third strain of mouse, C3H/HeN (LD50/7 about 12 Gy), was also studied. At 12.5 Gy sub-TBI, 33% of control mice survived while 50% of mice treated with FGF-P survived. At 13.5 Gy, all the control mice died within 7 days, while 50% of FGF-P treated mice survived (FIG. 3B). Thus unlike native FGF the bioavailability or bioeffect of FGF-P seems to be strain independent.
# [3] = Plasma endotoxin after sub-TBI (tachypleus amebocyte lysate kit); type: in vivo, mouse (Balb/c, C57BL/6); conditions: Balb/c, 10.5 Gy sub-TBI, 3.5 days post-IR; FGF-P treated (vehicle 3.32, normal 0.45)
# Procedure: Some studies have employed bacterial culture of liver samples. Bacterial translocation occurs due to mucosal barrier changes (1) at the level of the basement membrane and (2) bowel mucous volume and composition. The most reliable and most clinically applicable method to measure bacterial translocation is the endotoxin assay. The level of plasma endotoxin 3.5 days post-IR was measured with a commercialized kit that utilized tachypleus amebocyte lysate to sensitively quantitate endotoxin at extremely low levels (<0.01 EU/ml); and 4) body weight (BW): poor nutrition and water absorption will result in reduced body weight. The rate and severity of weight loss, as well as the pace of body weight recovery, will be measured.
# 2) A standard scoring scale was used to evaluate stool formation (diarrhea). The bowel was extracted from the abdomen and visually inspected. Formed stool was easily distinguished from semi-solid and liquid stool as it passed from the ascending to descending colon. FIGS. 7B and 7C show the irradiated bowel in controls compared with FGF-P-treated Balb/c mice. The FGF-P was given at a dose of 2 mg/kg im for three daily doses beginning 15 min after irradiation. Animals were sacrificed 3.5 days after 10.5 Gy sub-TBI.
# [4] = Toxicity of FGF-P (LD50/14 experiments); type: in vivo, mouse (Balb/c)
# Procedure: Standard LD50/14 experiments have been performed. Up to 400 mg/kg of FGF-P was injected into Balb/c mice. No obvious signs of illness were observed. […] Thus, even the maximum NOAEL (no observed adverse effect level) could not be found. […] This observation is not surprising since similar observations have been made previously with human FGF-2 in mice (9-14) Likewise, it has been shown that in various disease states the level of FGF in humans is commonly 100 times the normal baseline.
# A useful mitigator can be effective even given 8-24 hours IR exposure because of the time required for distribution. Therefore, FGF-P given at 8 hour after 7.1 Gy IR was tested.
# Stability of FGF-P = type: physicochemical
# human FGFR1 = human FGFR1 (Homo sapiens, UniProt P11362); experiment: Biacore binding assay
# irradiated human cells = experiment: Responsiveness of irradiated human cells; type: cell-based
# human FGFR1, sequence (P11362 22-822): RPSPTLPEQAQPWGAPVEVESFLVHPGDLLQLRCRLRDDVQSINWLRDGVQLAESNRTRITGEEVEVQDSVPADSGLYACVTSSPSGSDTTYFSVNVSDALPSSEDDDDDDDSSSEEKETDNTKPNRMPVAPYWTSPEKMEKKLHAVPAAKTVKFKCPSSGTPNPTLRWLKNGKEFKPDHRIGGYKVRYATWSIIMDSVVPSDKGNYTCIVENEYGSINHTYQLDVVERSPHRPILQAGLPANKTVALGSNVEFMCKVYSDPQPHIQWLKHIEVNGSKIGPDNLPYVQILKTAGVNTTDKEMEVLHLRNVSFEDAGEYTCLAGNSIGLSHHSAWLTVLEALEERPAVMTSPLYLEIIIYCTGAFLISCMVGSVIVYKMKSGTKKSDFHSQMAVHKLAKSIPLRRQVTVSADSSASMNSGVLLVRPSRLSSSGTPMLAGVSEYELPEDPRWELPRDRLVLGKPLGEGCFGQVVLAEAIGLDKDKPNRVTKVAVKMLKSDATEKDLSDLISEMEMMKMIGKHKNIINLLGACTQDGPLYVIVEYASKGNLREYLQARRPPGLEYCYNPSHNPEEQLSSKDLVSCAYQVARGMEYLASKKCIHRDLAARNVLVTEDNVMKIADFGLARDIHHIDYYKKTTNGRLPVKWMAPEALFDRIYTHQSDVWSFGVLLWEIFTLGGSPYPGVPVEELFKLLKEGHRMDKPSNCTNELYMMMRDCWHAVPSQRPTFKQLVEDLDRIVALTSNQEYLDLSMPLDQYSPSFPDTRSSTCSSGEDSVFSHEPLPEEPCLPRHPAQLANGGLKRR
smiles,measurement,setting,value
"CC(C)C[C@H](NC(=O)[C@H](C)NC(=O)[C@@H](NC(=O)[C@H](Cc1ccc(O)cc1)NC(=O)[C@H](Cc1c[nH]c2ccccc12)NC(=O)[C@H](CO)NC(=O)[C@H](CO)NC(=O)[C@H](Cc1ccc(O)cc1)NC(=O)[C@H](CCCCN)NC(=O)[C@H](CCCNC(=N)N)NC(=O)[C@H](CO)NC(=O)[C@H](CCCNC(=N)N)NC(=O)[C@H](Cc1ccc(O)cc1)NC(=O)[C@@H](N)CS)C(C)C)C(=O)N[C@@H](CCCCN)C(=O)N[C@@H](CCCNC(=N)N)C(=O)N[C@@H](CS)C(=O)O [FGF-P, CYRSRKYSSWYVALKRC] (H-CYRSRKYSSWYVALKRC-OH; N-terminus and C-terminus assumed)",growth of endothelium,[1],stimulated the growth of both endothelium and epithelium
same,mice still alive,"[2]; Balb/c, 10 Gy sub-TBI, at 4 months, FGF-P 2 mg/kg im 5-10 min after IR, daily 3-5 days",87%
same,mice survived,"[2]; Balb/c, 10.5 or 11 Gy sub-TBI, 3.5 months, FGF-P 2 mg/kg im",33-67%
same,mice survived,"[2]; Balb/c, 12 Gy sub-TBI, FGF-P 2 mg/kg im",17%
same,mice survived,"[2]; C3H/HeN, 12.5 Gy sub-TBI",50%
same,mice survived,"[2]; C3H/HeN, 13.5 Gy sub-TBI",50%
same,mice still alive,"[2]; C57BL/6, 16 Gy sub-TBI, at 1.5 months, FGF-P 2 mg/kg 10 min after IR",33%
same,long-term survival,"[2]; C57BL/6, 16 Gy sub-TBI, over 2.5 months",33%
same,plasma endotoxin level (mean),[3],2.12 EU/ml
same,body weight,"[4]; Balb/c mice, up to 400 mg/kg",body weight did not decrease
same,dose tolerated well without any signs of sickness,[4]; mice,up to 4 gram/kg
same,NOAEL at 14 days,"[4]; mouse, in vivo, Balb/c mice, LD50/14 experiments, read-out: injected dose with no obvious signs of illness (maximum NOAEL could not be found)",≤ 400 mg/kg
same,enzyme resistance,Stability of FGF-P; dry powder,enzyme-resistant as a dry powder
same,stability,"Stability of FGF-P; severe conditions / liquid, boiling","stable as a liquid even with boiling; also recorded: stable under severe conditions, for example to boiling"
same,effectiveness of boiled FGF-P,"Stability of FGF-P; stability test, boiled vs original form",as effective as the original form
same,binding to human FGFR1,human FGFR1,binding of FGF-P to human FGFR1
same,responsiveness of irradiated human cells,irradiated human cells,maintain their responsiveness to FGF-P
